Assay [1] has as its system HeLa. Briefly: Induction of apoptosis in human HeLa cells assessed as late apoptotic cells at 10 nM incubated for 24 hrs by annexin V FITC and propidium iodide staining based flow cytometry analysis (reference value: 0.05%). It counts as functional. A general note: A flow cytometer gives signals particle by particle.
Assay [2] concerns HeLa. Put plainly: Antiproliferative activity against human HeLa cells assessed as reduction in cell viability incubated for 48 hrs by MTS assay. It counts as functional, cell-based. (In general: Formazan colour is commonly taken as a measure of viable cells.)
Assay [3] has as its system HeLa. Put plainly: Induction of mitochondrial membrane potential alteration in human HeLa cells assessed as late apoptotic cells at 10 nM measured after 48 hrs by JC1 staining-based flow cytometry analysis (reference value: 0.009%). It counts as functional.
Assay [4] concerns HeLa. Briefly: Induction of apoptosis in human HeLa cells assessed as viable cells at 10 nM incubated for 72 hrs by annexin V FITC and propidium iodide staining based flow cytometry analysis (reference value: 90.1%). The conditions noted are these: read-out: Activity. Type of assay: functional.
For assay [5], the system named is HeLa. Put plainly: Induction of mitochondrial membrane potential alteration in human HeLa cells assessed as necrotic cells at 10 nM measured after 48 hrs by JC1 staining-based flow cytometry analysis (reference value: 0%). Type of assay: functional.
The test system of assay [6] is HeLa. Briefly: Induction of apoptosis in human HeLa cells assessed as early apoptotic cells at 10 nM incubated for 48 hrs by annexin V FITC and propidium iodide staining based flow cytometry analysis (reference value: 6.01%). Type of assay: functional.
Assay [7] concerns HeLa. Briefly: Induction of apoptosis in human HeLa cells assessed as necrotic cells at 10 nM incubated for 24 hrs by annexin V FITC and propidium iodide staining based flow cytometry analysis (reference value: 1.14 %). It counts as functional.
Assay [8] concerns HeLa. Put plainly: Induction of apoptosis in human HeLa cells assessed as late apoptotic cells at 10 nM incubated for 48 hrs by annexin V FITC and propidium iodide staining based flow cytometry analysis (reference value: 8.87%). It counts as functional.
The next assay relates to HCT-116. Put plainly: Antiproliferative activity against human HCT-116 cells assessed as reduction in cell viability incubated for 48 hrs by MTS assay. Type of assay: functional, cell-based. The conditions noted are these: HCT-116, 48 h.
The test system of a further assay is A549. Put plainly: cells. The conditions noted are these: Homo sapiens, A549, 48 h.
Assay [9] relates to HeLa. Briefly: Induction of apoptosis in human HeLa cells assessed as early apoptotic cells at 10 nM incubated for 24 hrs by annexin V FITC and propidium iodide staining based flow cytometry analysis (reference value: 0.12%). Type of assay: functional.
Assay [10] has as its system HeLa. Briefly: Induction of mitochondrial membrane potential alteration in human HeLa cells assessed as early apoptotic cells at 10 nM measured after 48 hrs by JC1 staining-based flow cytometry analysis (reference value: 9.07 %). It counts as functional.
The test system of assay [11] is HeLa. Briefly: Induction of apoptosis in human HeLa cells assessed as viable cells at 10 nM incubated for 48 hrs by annexin V FITC and propidium iodide staining based flow cytometry analysis (reference value: 85.5%). It counts as functional. The settings on record: read-out: Activity.
Assay [12] concerns HeLa. Briefly: Induction of apoptosis in human HeLa cells assessed as viable cells at 10 nM incubated for 24 hrs by annexin V FITC and propidium iodide staining based flow cytometry analysis (reference value: 85.7%). It counts as functional. The conditions noted are these: read-out: Activity.
The test system of assay [13] is HeLa. Briefly: Induction of apoptosis in human HeLa cells assessed as late apoptotic cells at 10 nM incubated for 72 hrs by annexin V FITC and propidium iodide staining based flow cytometry analysis (reference value: 4.70%). It counts as functional.
Assay [14] has as its system HeLa. Put plainly: Induction of apoptosis in human HeLa cells assessed as necrotic cells at 10 nM incubated for 48 hrs by annexin V FITC and propidium iodide staining based flow cytometry analysis (reference value: 1.85 %). Type of assay: functional.
The test system of assay [15] is HeLa. Put plainly: Induction of apoptosis in human HeLa cells assessed as necrotic cells at 10 nM incubated for 72 hrs by annexin V FITC and propidium iodide staining based flow cytometry analysis (reference value: 2.88 %). Type of assay: functional.
For assay [16], the system named is HeLa. Briefly: Induction of mitochondrial membrane potential alteration in human HeLa cells assessed as viable cells at 10 nM measured after 48 hrs by JC1 staining-based flow cytometry analysis (reference value: 90.9%). Type of assay: functional. The settings on record: read-out: Activity.
A further assay relates to HL-60. Briefly: Antiproliferative activity against human HL-60 cells assessed as reduction in cell viability incubated for 48 hrs by MTS assay. Type of assay: functional, cell-based. The conditions noted are these: HL-60, 48 h.
Assay [17] relates to HeLa. Briefly: Induction of apoptosis in human HeLa cells assessed as early apoptotic cells at 10 nM incubated for 72 hrs by annexin V FITC and propidium iodide staining based flow cytometry analysis (reference value: 2.36%). It counts as functional.

Our source for the Activity, IC50 and viability values is ChEMBL document CHEMBL5126582, “Discovery of (2-(pyrrolidin-1-yl)thieno[3,2-d]pyrimidin-4-yl)(3,4,5-trimethoxyphenyl)methanone as a novel potent tubulin depolymerizing and vascular disrupting agent” (Eur J Med Chem, 2022).

Description for A549: Antiproliferative activity against human A549 cells assessed as reduction in cell viability incubated for 48 hrs by MTS assay

With `COc1ccc(/C=C\c2cc(OC)c(OC)c(OC)c2)cc1O` [COMBRETASTATIN A4], the Activity in the assay with HeLa [1] came out at 7.5%; in the assay with HeLa [3] it was 0%; in the assay with HeLa [5], 0.011%; with HeLa [6], 20.1%; in the assay with HeLa [7], 8.87%; in the assay on HeLa [8] it was 51.9%. Also, the Activity came to 7.41% with HeLa [9]; 18% in the assay on HeLa [10]; 31.8% in the assay on HeLa [13]; 11.2% in the assay on HeLa [14]; 23.3% in the assay on HeLa [15]; 17% in the assay with HeLa [17]. In addition, the IC50 with HeLa [2] was found to be 1.4 nM; in the assay on HCT-116 it was 1.1 nM; in the assay with A549, 7.5 nM; with HL-60 it was 1.3 nM. Besides, the viability at 0.01 µM with HeLa [4] worked out at 25.1%; in the assay on HeLa [11] it was 16.9%; with HeLa [12], 79.4%; in the assay with HeLa [16], 82%.

The term IC50 denotes the concentration at which inhibition is half-maximal.
